Test results as given in patent publication US9452986B2, “6-heteroaryloxy- or 6-aryloxy-quinoline-2-carboxamides and method of use” (AbbVie Inc., priority 2014, dated 2016).
Like-named read-outs stand apart in the source and are kept apart here.

Experiments:
recombinant human Nav1.7 = recombinant human Nav1.7 (Homo sapiens (Human), UniProt Q15858); experiment: FRET-based membrane potential assay, recombinant human sodium channel Nav1.7; assay type: cell-based
Method in brief: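 Channel activation used veratridine at its EC80, set by a dilution curve each experiment, together with Leiurus scorpion venom, added 3 min after compound. Membrane-potential ratio signals from FLIPR Tetra in HEPES-buffered HBSS were fitted to a four-parameter Hill equation for percent inhibition and IC50.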

osteoarthritic rats = experiment: Osteoarthritic (OA) pain induced by sodium monoiodoacetate (MIA), hind limb grip force; assay type: in vivo, rat; conditions: Rattus norvegicus, 480 h, rat, 20 days following MIA injection, hind limb grip force, read-out: OA MPE; for inhibition in vivo at 10 mg/kg: OA dose 10 mg/kg
Description: Osteoarthritic (OA) Pain Induced by Sodium Monoiodoacetate (MIA)
Pain behavior was assessed by measurement of hind limb grip force (GF) in adult osteoarthritic rats. Male Sprague Dawley rats, obtained from Charles River Laboratories, (Wilmington, Mass.), weighing 150-175 g, were injected in the unilateral knee join with a single intra-articular injection of sodium monoiodoacetate (MIA, 3 mg/rat). All rats were tested at 20 days following MIA injection. A behavioral measure of activity-induced pain was carried out. Measurements of the peak hind limb grip force were conducted by recording the maximum compressive force (CFmax), in grams of force, exerted on a hind limb strain gauge setup, in a commercially available grip force measurement system (Columbus Instruments, Columbus, Ohio).
During testing, each rat was gently restrained by grasping it around its rib cage and then allowed to grasp the wire mesh frame attached to the strain gauge. The experimenter then moved the animal in a rostral-to-caudal direction until the grip was broken. Each rat was sequentially tested twice at an approximately 2-3 minute interval to obtain a raw mean grip force (CFmax). This raw mean grip force data was in turn converted to a maximum hindlimb cumulative compressive force (CFmax), as the grams of force/kg of body weight, for each animal.
For evaluating the compound effects, the hind limb grip force was conducted 20 days following the intra-articular injection of MIA. A group of age-matched naïve (not injected with MIA) animals was added as a comparator to the drug-dosed groups. The vehicle control response for each group of MIA-treated animals was defined as the 0% response (0% effect), whereas the naïve control group was defined as the normal response and as 100% effect. The % effect for each dose group was expressed as % return of response to normalcy, compared to the naïve group. A percent maximal possible effect (% MPE) of testing compound was calculated according to the formula: (Treatment CFmax−Vehicle CFmax)/Vehicle CFmax]×100). Higher % effect numbers indicate increased relief from the pain in the model, with 100% indicating a return to the level of response seen in normal (non-osteoarthritic) animals. All experiments evaluating drug effects in this model were conducted in a randomized blinded fashion.
The animals were housed in Association for Assessment and Accreditation of Laboratory Animal Care (AAALAC) approved facilities at AbbVie Inc. in a temperature-regulated environment under a controlled 12-hour light-dark cycle, with lights on at 6:00 a.m. Food and water were available ad libitum at all times except during testing. All testing was done following procedures outlined in protocols approved by AbbVie Inc.'s Institutional Animal Care and Use Committee.

[1] = read-out: FRET-Membrane Potential Nav1.7 IC50
[2] = HEK293 cells stably expressing recombinant human Nav1.7, veratridine + scorpion venom depolarization, read-out: FRET-Membrane Potential Nav1.7 IC50

Chain of recombinant human Nav1.7 (Q15858 whole entry): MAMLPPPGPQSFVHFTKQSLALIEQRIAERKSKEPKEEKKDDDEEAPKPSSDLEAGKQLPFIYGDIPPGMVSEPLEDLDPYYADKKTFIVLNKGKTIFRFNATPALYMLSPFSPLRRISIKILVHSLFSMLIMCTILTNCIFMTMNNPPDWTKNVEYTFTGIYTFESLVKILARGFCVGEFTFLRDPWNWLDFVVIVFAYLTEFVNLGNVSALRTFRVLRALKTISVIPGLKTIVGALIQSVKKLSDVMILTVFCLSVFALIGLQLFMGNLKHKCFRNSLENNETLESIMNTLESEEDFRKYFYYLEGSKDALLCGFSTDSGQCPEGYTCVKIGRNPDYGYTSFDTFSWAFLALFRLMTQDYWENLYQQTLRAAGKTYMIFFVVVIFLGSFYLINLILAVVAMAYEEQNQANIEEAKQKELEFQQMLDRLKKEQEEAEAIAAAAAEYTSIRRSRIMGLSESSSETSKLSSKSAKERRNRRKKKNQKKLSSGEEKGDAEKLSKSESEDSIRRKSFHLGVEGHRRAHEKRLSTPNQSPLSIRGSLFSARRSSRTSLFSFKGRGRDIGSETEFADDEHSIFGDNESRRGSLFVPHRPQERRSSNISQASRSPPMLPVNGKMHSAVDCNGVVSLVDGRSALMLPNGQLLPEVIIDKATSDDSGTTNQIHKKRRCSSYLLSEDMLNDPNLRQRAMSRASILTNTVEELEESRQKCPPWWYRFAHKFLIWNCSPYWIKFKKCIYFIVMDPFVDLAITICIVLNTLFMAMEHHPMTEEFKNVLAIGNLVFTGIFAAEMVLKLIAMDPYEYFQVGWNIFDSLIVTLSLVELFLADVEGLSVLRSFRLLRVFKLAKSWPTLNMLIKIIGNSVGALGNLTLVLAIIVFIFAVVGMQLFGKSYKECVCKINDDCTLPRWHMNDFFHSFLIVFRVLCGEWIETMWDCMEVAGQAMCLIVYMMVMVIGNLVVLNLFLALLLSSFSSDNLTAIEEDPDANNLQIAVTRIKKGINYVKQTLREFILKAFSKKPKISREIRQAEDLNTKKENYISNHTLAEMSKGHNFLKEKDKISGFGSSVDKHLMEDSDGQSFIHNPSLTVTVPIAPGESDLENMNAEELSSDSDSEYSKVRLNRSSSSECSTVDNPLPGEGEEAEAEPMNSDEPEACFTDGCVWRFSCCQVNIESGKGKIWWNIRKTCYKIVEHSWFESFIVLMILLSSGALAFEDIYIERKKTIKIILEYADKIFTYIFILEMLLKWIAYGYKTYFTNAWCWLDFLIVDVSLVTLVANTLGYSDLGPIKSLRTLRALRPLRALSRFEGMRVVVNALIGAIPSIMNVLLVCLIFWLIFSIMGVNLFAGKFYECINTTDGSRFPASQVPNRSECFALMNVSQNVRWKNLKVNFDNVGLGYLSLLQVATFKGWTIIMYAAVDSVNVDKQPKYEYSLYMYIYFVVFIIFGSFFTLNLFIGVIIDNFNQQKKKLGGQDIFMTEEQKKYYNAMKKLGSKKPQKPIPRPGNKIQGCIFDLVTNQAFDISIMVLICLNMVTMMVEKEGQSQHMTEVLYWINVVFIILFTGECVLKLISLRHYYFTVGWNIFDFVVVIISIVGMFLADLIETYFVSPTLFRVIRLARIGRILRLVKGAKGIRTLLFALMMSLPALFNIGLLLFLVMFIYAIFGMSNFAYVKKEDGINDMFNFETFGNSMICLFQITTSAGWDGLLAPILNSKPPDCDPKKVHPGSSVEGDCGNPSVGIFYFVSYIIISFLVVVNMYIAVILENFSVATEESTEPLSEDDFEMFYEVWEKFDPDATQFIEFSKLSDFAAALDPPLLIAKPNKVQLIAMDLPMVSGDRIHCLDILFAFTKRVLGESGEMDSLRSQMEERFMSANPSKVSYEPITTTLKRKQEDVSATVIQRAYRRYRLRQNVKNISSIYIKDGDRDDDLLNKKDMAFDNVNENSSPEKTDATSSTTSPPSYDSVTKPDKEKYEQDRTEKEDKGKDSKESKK

Row | Structure (SMILES) | IC50 (recombinant human Nav1.7; [1]) [nM] | inhibition in vivo at 10 mg/kg (osteoarthritic rats) [%] | IC50 (recombinant human Nav1.7; [2]) [nM] | IC50 (recombinant human Nav1.7; FRET-Membrane Potential Nav1.7 IC50) [nM] | inhibition in vivo at 30 mg/kg (osteoarthritic rats; OA dose 30 mg/kg) [%]
1 | C[C@@H]1CN(C(=O)c2ccc3cc(Oc4ccc(C(F)(F)F)cn4)ccc3n2)CCN1 [Example 12, [(3R)-3-methylpiperazin-1-yl](6-{[5-(trifluoromethyl)pyridin-2-yl]oxy}quinolin-2-yl)methanone] | 348 | 79 | – | – | –
2 | C[C@H]1CN(C(=O)c2ccc3cc(Oc4ccc(C(F)(F)F)cn4)ccc3n2)CCN1 [Example 13, [(3S)-3-methylpiperazin-1-yl](6-{[5-(trifluoromethyl)pyridin-2-yl]oxy}quinolin-2-yl)methanone] | 454 | 44 | – | – | –
3 | O=C(NC1CCS(=O)(=O)CC1)c1ccc2cc(Oc3ccc(C(F)(F)F)cn3)ccc2n1 [Example 15, N-(1,1-dioxidotetrahydro-2H-thiopyran-4-yl)-6-{[5-(trifluoromethyl)pyridin-2-yl]oxy}quinoline-2-carboxamide] | – | 52 | 1090 | – | –
4 | CC[C@@H]1CN(C(=O)c2ccc3cc(Oc4ccc(C(F)(F)F)cn4)ccc3n2)CCN1 [Example 16, [(3R)-3-ethylpiperazin-1-yl](6-{[5-(trifluoromethyl)pyridin-2-yl]oxy}quinolin-2-yl)methanone] | – | 57 | 406 | – | –
5 | O=C(c1ccc2cc(Oc3ccc(C(F)(F)F)cn3)ccc2n1)N1CCN[C@@H](CO)C1 [Example 17, [(3R)-3-(hydroxymethyl)piperazin-1-yl](6-{[5-(trifluoromethyl)pyridin-2-yl]oxy}quinolin-2-yl)methanone] | 3120 | 19 | – | – | –
6 | O=C(NCCN1CCOCC1)c1ccc2cc(Oc3ccc(C(F)(F)F)cn3)ccc2n1 [Example 21, N-[2-(morpholin-4-yl)ethyl]-6-{[5-(trifluoromethyl)pyridin-2-yl]oxy}quinoline-2-carboxamide] | – | 35 | 529 | – | –
7 | O=C(N[C@@H]1CS(=O)(=O)C[C@H]1O)c1ccc2cc(Oc3ccc(C(F)(F)F)cn3)ccc2n1 [Example 24, N-[(3S,4S)-4-hydroxy-1,1-dioxidotetrahydrothiophen-3-yl]-6-{[5-(trifluoromethyl)pyridin-2-yl]oxy}quinoline-2-carboxamide] | 1580 | 62 | – | – | –
8 | O=C(N[C@H]1CS(=O)(=O)C[C@H]1O)c1ccc2cc(Oc3ccc(C(F)(F)F)cn3)ccc2n1 [Example 26, N-[(3R,4S)-4-hydroxy-1,1-dioxidotetrahydrothiophen-3-yl]-6-{[5-(trifluoromethyl)pyridin-2-yl]oxy}quinoline-2-carboxamide] | 1990 | 67 | – | – | –
9 | O=C(c1ccc2cc(Oc3ccc(C(F)(F)F)cn3)ccc2n1)N1CC(=O)N2CCC[C@H]2C1 [Example 27, (8aS)-2-[(6-{[5-(trifluoromethyl)pyridin-2-yl]oxy}quinolin-2-yl)carbonyl]hexahydropyrrolo[1,2-a]pyrazin-4(1H)-one] | – | 49 | 1100 | – | –
10 | CC(C)(O)CNC(=O)c1ccc2cc(Oc3ccc(C(F)(F)F)cn3)ccc2n1 [Example 30, N-(2-hydroxy-2-methylpropyl)-6-{[5-(trifluoromethyl)pyridin-2-yl]oxy}quinoline-2-carboxamide] | – | 66 | 793 | – | –
11 | O=C(NC1CC[S+]([O-])CC1)c1ccc2cc(Oc3ccc(C(F)(F)F)cn3)ccc2n1 (stereo not shown) [Example 32, N-(1-oxidotetrahydro-2H-thiopyran-4-yl)-6-{[5-(trifluoromethyl)pyridin-2-yl]oxy}quinoline-2-carboxamide] | 535 | 23 | – | – | –
12 | O=C(N[C@H]1C[C@@H](O)C1)c1ccc2cc(Oc3ccc(C(F)(F)F)cn3)ccc2n1 [Example 34, N-(cis-3-hydroxycyclobutyl)-6-{[5-(trifluoromethyl)pyridin-2-yl]oxy}quinoline-2-carboxamide] | – | 41 | – | 841 | –
13 | O=C(NCC1CCO1)c1ccc2cc(Oc3ccc(C(F)(F)F)cn3)ccc2n1 (stereo not shown) [Example 37, N-(oxetan-2-ylmethyl)-6-{[5-(trifluoromethyl)pyridin-2-yl]oxy}quinoline-2-carboxamide] | – | 29 | 392 | – | –
14 | C[C@@H](O)CNC(=O)c1ccc2cc(Oc3ccc(C(F)(F)F)cn3)ccc2n1 [Example 38, N-[(2R)-2-hydroxypropyl]-6-{[5-(trifluoromethyl)pyridin-2-yl]oxy}quinoline-2-carboxamide] | 311 | 30 | – | – | –
15 | O=C(c1ccc2cc(Oc3ccc(C(F)(F)F)cn3)ccc2n1)N1CCNC2(CC2)C1 [Example 39, 4,7-diazaspiro[2.5]oct-7-yl(6-{[5-(trifluoromethyl)pyridin-2-yl]oxy}quinolin-2-yl)methanone] | – | – | 735 | – | 43
16 | O=C1CC(NC(=O)c2ccc3cc(Oc4ccc(C(F)(F)F)cn4)ccc3n2)CCN1 (stereo not shown) [Example 40, N-(2-oxopiperidin-4-yl)-6-{[5-(trifluoromethyl)pyridin-2-yl]oxy}quinoline-2-carboxamide] | 285 | 59 | – | – | –
17 | CO[C@H]1C[C@@H](NC(=O)c2ccc3cc(Oc4ccc(C(F)(F)F)cn4)ccc3n2)C1 [Example 41, N-(cis-3-methoxycyclobutyl)-6-{[5-(trifluoromethyl)pyridin-2-yl]oxy}quinoline-2-carboxamide] | – | 67 | 1270 | – | –
18 | CN(C)C(=O)CNC(=O)c1ccc2cc(Oc3ccc(C(F)(F)F)nc3)ccc2n1 [Example 42, N-[2-(dimethylamino)-2-oxoethyl]-6-{[6-(trifluoromethyl)pyridin-3-yl]oxy}quinoline-2-carboxamide] | – | 64 | 1790 | – | –
19 | C[C@H]1CN(C(=O)c2ccc3cc(Oc4ccc(C(F)F)cn4)ccc3n2)CCN1 [Example 43, (6-{[5-(difluoromethyl)pyridin-2-yl]oxy}quinolin-2-yl) [(3S)-3-methylpiperazin-1-yl]methanone] | – | 71 | 3060 | – | –
20 | O=C(NC1CC(=O)N(c2ccc(F)cc2)C1)c1ccc2cc(Oc3ccc(C(F)(F)F)cn3)ccc2n1 (stereo not shown) [Example 54, N-[1-(4-fluorophenyl)-5-oxopyrrolidin-3-yl]-6-{[5-(trifluoromethyl)pyridin-2-yl]oxy}quinoline-2-carboxamide] | – | 21 | 409 | – | –
21 | COCC1CN(C(=O)c2ccc3cc(Oc4ccc(C(F)(F)F)cn4)ccc3n2)C1 [Example 60, [3-(methoxymethyl)azetidin-1-yl](6-{[5-(trifluoromethyl)pyridin-2-yl]oxy}quinolin-2-yl)methanone] | – | 23 | 1260 | – | –
22 | CN(C)C(=O)CNC(=O)c1ccc2cc(Oc3ccc(C(F)F)cn3)ccc2n1 [Example 441, 6-{[5-(difluoromethyl)pyridin-2-yl]oxy}-N-[2-(dimethylamino)-2-oxoethyl]quinoline-2-carboxamide] | 1150 | 22 | – | – | –
23 | N#CC1CN(C(=O)c2ccc3cc(Oc4ccc(C(F)(F)F)cn4)ccc3n2)CCN1 (stereo not shown) [Example 483, 4-[(6-{[5-(trifluoromethyl)pyridin-2-yl]oxy}quinolin-2-yl)carbonyl]piperazine-2-carbonitrile] | 3610 | 55 | – | – | –
